The source made the active and inactive calls. The calls are words filed in the database; no cut-off is given here.
Target: T1, Alpha-amylase 1A (Homo sapiens) (UniProt P0DUB6)
T1 sequence (whole entry): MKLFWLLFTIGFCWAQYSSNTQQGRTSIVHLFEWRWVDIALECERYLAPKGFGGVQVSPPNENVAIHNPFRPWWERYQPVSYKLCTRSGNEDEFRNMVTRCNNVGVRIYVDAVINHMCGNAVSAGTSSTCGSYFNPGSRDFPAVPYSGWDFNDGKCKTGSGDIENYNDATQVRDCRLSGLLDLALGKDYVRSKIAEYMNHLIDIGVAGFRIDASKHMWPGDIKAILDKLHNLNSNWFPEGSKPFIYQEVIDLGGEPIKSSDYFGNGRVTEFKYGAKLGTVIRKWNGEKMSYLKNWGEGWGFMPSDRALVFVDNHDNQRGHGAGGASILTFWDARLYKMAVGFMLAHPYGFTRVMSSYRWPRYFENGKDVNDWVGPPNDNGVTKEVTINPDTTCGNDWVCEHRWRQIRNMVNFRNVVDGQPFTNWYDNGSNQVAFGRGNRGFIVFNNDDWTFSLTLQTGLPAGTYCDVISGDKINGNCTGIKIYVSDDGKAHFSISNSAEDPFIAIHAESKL
Test: Activity of human salivary alpha amylase by FRET assay

Activity	Structure (SMILES)
Active	CN(C)c1cccc2c(S(=O)(=O)NCCSCCCCCS[C@@H]3O[C@H](CO)[C@@H](O[C@H]4O[C@H](CO)[C@@H](O[C@H]5O[C@H](CO)[C@@H](O[C@H]6O[C@H](CO)[C@@H](O[C@H]7O[C@H](CO)[C@@H](O[C@H]8O[C@H](COCc9ccc%10ccccc%10c9)[C@@H](O)[C@H](O)[C@H]8O)[C@H](O)[C@H]7O)[C@H](O)[C@H]6O)[C@H](O)[C@H]5O)[C@H](O)[C@H]4O)[C@H](O)[C@H]3O)cccc12
inactive	CN(C)c1cccc2c(S(=O)(=O)NCCSCCCCCS[C@@H]3O[C@H](CO)[C@@H](O[C@H]4O[C@H](COCc5ccc6ccccc6c5)[C@@H](O)[C@H](O)[C@H]4O)[C@H](O)[C@H]3O)cccc12
